US20200000917A1, “METHODS OF PHOTOCHEMICAL TREATMENT FOR WOUND HEALING” (The General Hospital Corporation, priority 2017, published 2020)

Tests used:
[1] = system: full-thickness, excisional 1 cm by 1 cm wounds on the dorsa of C57BL/6 mice; test: Wound contracture after photochemical treatment (area within tattooed wound perimeter); assay type: in vivo
Experimental: (§1) By way of example, the above-described system 20 and method 10 were studied in comparison to untreated control wounds. The study was carried out according to the steps illustrated in FIG. 3. Generally, FIG. 3 illustrates a wound creation step 30, an activating agent delivery step 32, an illumination step 34, and a post-treatment step 36. More specifically, at step 30, full-thickness, excisional 1 cm by 1 cm wounds 38 were created on the dorsa of C57BL/6 mice 40 in both a control group of 16 mice and a test group of 16 mice. Additionally, dots 42 were tattooed on the skin around the wound perimeter in both the control and test groups (as shown in step 34) in order to monitor contracture over the course of wound healing. Following step 30, control group wounds were left alone to heal. With respect to the test group, at step 32, a Rose Bengal solution was painted onto wound beds 38 (e.g., as discussed above with respect to process block 12 of FIG. 1). At step 34, the wounds 38 were illuminated by an electromagnetic radiation source 26, in particular, a KTP laser having a 532-nanometer wavelength, with an energy output of 60 Joules per centimeter squared (e.g., as discussed above with respect to process block 14 of FIG. 1). Steps 32 and 34 were conducted immediately after wound creation at step 30. Step 36 illustrates the immediate result of wound treatment, that is, the photobleaching of Rose Bengal dye.
To compare the test and control groups, the area within each tattooed wound perimeter was serially measured over 6 weeks and percent contracture was calculated. Additionally, at 7, 14, 21, and 42 days, mice were euthanized and tissue was harvested for histology.

[2] = system: full-thickness, excisional 1 cm by 1 cm wounds on the dorsa of C57BL/6 mice; test: Histology of harvested wound tissue after photochemical treatment; assay type: in vivo; conditions: days 7, 21 and 42 post wound creation; Rose Bengal solution + KTP laser 532 nm, 60 J/cm2
Experimental: as §1, with “Steps 32 and 34 were conducted immediately after wound creation at step 30. Step 36 illustrates the immediate result of wound treatment, that is, the photobleaching of Rose Bengal dye.” left out
To compare the test and control groups, the area within each tattooed wound perimeter was serially measured over 6 weeks and percent contracture was calculated. […]

In the case of `O=C([O-])c1c(Cl)c(Cl)c(Cl)c(Cl)c1-c1c2cc(I)c(=O)c(I)c-2oc2c(I)c([O-])c(I)cc12.[Na+].[Na+]` [Rose Bengal], the “more contracture in control wounds than in test group” value ([1]; by day 7) is reported as roughly 20%, the percent contracture ([1]; day 7, Rose Bengal solution painted on wound bed, KTP laser 532 nm, 60 J/cm2, immediately after wound creation, control 80.3±8.5%, p=0.014) is reported as 67.1±17.1% and the “wounds contracted to (percentage of initial area of skin around wound perimeter)” value ([1]; day 42, Rose Bengal solution + KTP laser 532 nm, 60 J/cm2, control 13.6±5.6%, p=0.003) is reported as 35.2±2.9%. The “fold difference in remaining area, test group versus control group” value ([1]; day 42, p=0.003) was 1.59 fold and the “histological review of wound tissue compared to control group tissue” value [2] was “increased ingrowth and development of dermal cells, increased vascularity, and appearance of skin appendages earlier and to a greater degree”.
